The subject of series [1] is Tobacco Michinoku 1 (burley cultivar) leaves (first to fourth leaves from the top). As to the kind of experiment: Harmful effect of inhibitor on tobacco leaves, burley cultivar. The series is classed as in vivo, Nicotiana tabacum. As to the method: (§1) Tobacco seedlings of Tsukuba 1 (flue-cured cultivar) and Michinoku 1 (burley cultivar) were transplanted to 1/5000a Wagner pots filled with Kureha garden nursery soil. The plants were grown in a glasshouse, and the floral axis parts were removed at the time of single-flower bloom of tobacco (top pruning).
(§2) The formulations of the inhibitors for tobacco axillary bud growth obtained in Formulation Examples 1 to 10 above were each diluted with water to predetermined concentrations, and 20 ml of the water-diluted solutions of the respective inhibitors were separately sprayed using a contact-type axillary bud inhibitor spraying instrument equipped with a spot exhaust nozzle (Examples 1 to 11 and 12 to 22). In addition, butralin (trade name: Blue Ribbon) (Comparative Examples 1 and 3) and decyl alcohol (trade name: Contact) (Comparative Examples 2 and 4) were used for tests as comparative examples in the same manner as above. In the cases of both the flue-cured cultivar and burley cultivar, one plant was planted per pot, and the tests were carried out in duplicate.
(§3) Further, the presence or absence of the harmful effect of each inhibitor was evaluated in one of the following four categories depending on the degrees of growth inhibition, gangrene, change in color, deformation and the like of leaves (first to fourth leaves from the top).
(§4) Large: A severely harmful effect was observed.
(§5) Middle: A clearly harmful effect was observed.
(§6) Small: A slightly harmful effect was observed.
(§7) Absent: No harmful effect was observed.
(§8) The formulation of Formulation Example 11 (cafenstrole), Formulation Example 12 (thenylchlor) or Formulation Example 13 (chlorthal-dimethyl) above was diluted with water to predetermined concentrations, and the resultant was mixed, adjusted and used for tests (Examples 41 to 58 and 59 to 76). In addition, as comparative examples, the formulation of Formulation Example 11, Formulation Example 12 or Formulation Example 13 diluted with water to predetermined concentrations (Comparative Examples 21 to 29 and 34 to 42), butralin (trade name: Blue Ribbon) (Comparative Examples 17, 18, 30, and 31) and decyl alcohol (trade name: Contact) (Comparative Examples 19, 20, 32, and 33) were used for tests in the same manner as above.
(§9) The respective inhibitors were sprayed in the same manner as in Test Example 1, and states of inhibition of axillary bud growth 28 days after the spraying were investigated together with untreated groups sprayed with no inhibitor. Then, axillary bud growth inhibition ratios were calculated.

Series [2] deals with Tobacco Tsukuba 1 (flue-cured cultivar) axillary buds. As to the kind of experiment: Tobacco axillary bud growth inhibition test, flue-cured cultivar. As to conditions: Nicotiana tabacum, 672 h, 28 days after the spraying, read-out: Axillary bud growth inhibition ratio; for pest or weed control at 0.1 %: concentration of active ingredient 0.1%. Format: in vivo, Nicotiana tabacum. As to the method: as §1, §2
(§10) For the respective cases, states of inhibition of axillary bud growth 28 days after the spraying were investigated together with untreated groups sprayed with no inhibitor, and axillary bud growth inhibition ratios were calculated by the following equation. Axillary bud growth inhibition ratio=(fresh weight of axillary buds per plant of untreated group−fresh weight of axillary buds per plant of treated group)÷(fresh weight of axillary buds per plant of untreated group)×100 [Math. 1]
(§11) The formulation of Formulation Example 1 (cafenstrole), Formulation Example 2 (thenylchlor) or Formulation Example 10 (propisochlor) above was diluted with water to predetermined concentrations and mixed with decyl alcohol (manufactured by Wako Pure Chemical Industries, Ltd.), 2-ethylhexanol (manufactured by Wako Pure Chemical Industries, Ltd.) or geraniol (manufactured by Wako Pure Chemical Industries, Ltd.) at predetermined concentrations, and the resultant was adjusted and used for tests (Examples 23 to 31 and 32 to 40). In addition, as comparative examples, the formulation of Formulation Example 1, […], or Formulation Example 10 diluted with water to predetermined concentrations (Comparative Examples 5 to 7 and 11 to 13) and decyl alcohol, 2-ethylhexanol or geraniol diluted with water to a predetermined concentration were used for tests (Comparative Examples 8 to 10 and 14 to 16).
as §9, §8

Series [3] concerns Tobacco Tsukuba 1 (flue-cured cultivar) leaves (first to fourth leaves from the top). Kind of series: Harmful effect of inhibitor on tobacco leaves, flue-cured cultivar. The series is classed as in vivo, Nicotiana tabacum. As to the method:
as §1, §2, §3, §4, §5, §6, §7, §8, §9

Series [4] relates to Tobacco Michinoku 1 (burley cultivar) axillary buds. As to the kind of experiment: Tobacco axillary bud growth inhibition test, burley cultivar. To be noted: Nicotiana tabacum, 672 h, 28 days after the spraying, read-out: Axillary bud growth inhibition ratio; for pest or weed control at 0.1 %: concentration of active ingredient 0.1%. The series is classed as in vivo. The method, then:
as §1, §2, §10, §11, §9, §8

Where [5] appears, read: Table 2, burley cultivar, concentration of active ingredient 0.1%.
Where [6] appears, read: Table 1, flue-cured cultivar, concentration of active ingredient 0.1%.

Molecules are shown by their SMILES. Read-outs that look alike come from different tables or passages of the source.

Consider `COC(=O)c1c(Cl)c(Cl)c(C(=O)OC)c(Cl)c1Cl` [Chlorthal-dimethyl, chlorthal-dimethyl], for which the “Harmful effect of inhibitor” value in series [1] (in vivo) and in series [3] (in vivo) was “Absent” in each case. Moreover, the pest or weed control at 0.05 % in series [2] (Table 5, flue-cured cultivar, concentration of active ingredient 0.05%) stood at 43%; in series [4] (Table 6, burley cultivar, concentration of active ingredient 0.05%), 39%. Also, the pest or weed control at 0.1 % in series [2] (Table 5, flue-cured cultivar) stood at 78%; in series [4] (Table 6, burley cultivar), 71%. Besides, the pest or weed control at 0.2 % was 88% in series [2] (Table 5, flue-cured cultivar, concentration of active ingredient 0.2%) and 82% in series [4] (Table 6, burley cultivar, concentration of active ingredient 0.2%).

With `CCC1(CC2(c3cccc(Cl)c3)CO2)C(=O)c2ccccc2C1=O` (stereo not drawn) [Indanofan], the “Harmful effect of inhibitor” value in series [1] (in vivo) and in series [3] (in vivo) was “Absent” in each case. For the same molecule, the pest or weed control at 0.1 % in series [2] (Table 1, flue-cured cultivar) amounted to 100%; in series [4] (Table 2, burley cultivar), 95%.

`CCc1cccc(C)c1N(C(=O)CCl)C(C)COC` (stereo not drawn) [Metolachlor, metolachlor]: the “Harmful effect of inhibitor” value in series [1] (setting [5]) and in series [3] (setting [6]) was “Absent” each time. Moreover, the pest or weed control at 0.1 % in series [2] (Table 1, flue-cured cultivar) amounted to 95%; in series [4] (Table 2, burley cultivar) it was 91%.

`CCc1cccc(CC)c1N(COC)C(=O)CCl` [Alachlor, alachlor]: the “Harmful effect of inhibitor” value in series [1] (setting [5]) and in series [3] (setting [6]) was “Absent” throughout. Further, the pest or weed control at 0.1 % worked out at 97% in series [2] (Table 1, flue-cured cultivar) and 91% in series [4] (Table 2, burley cultivar).

With `CCCOCCN(C(=O)CCl)c1c(CC)cccc1CC` [Pretilachlor], the “Harmful effect of inhibitor” value in series [1] (setting [5]) and in series [3] (setting [6]) was “Absent” in each case. Further, the pest or weed control at 0.1 % in series [2] (Table 1, flue-cured cultivar) stood at 93%; in series [4] (Table 2, burley cultivar) it was 92%.
